From patent US20240383852A1, “ANTI-VIRAL COMPOUNDS” (INFEX Therapeutics Limited, priority 2021, published 2024)
Where a name gives a salt, the structure may show the parent alone. Read-outs that look alike come from different tables or passages of the source.

Assays:
[1] = tested on: human Hep G2 cells (ATCC HB-8065); experiment: Cytotoxicity in Hep G2 cells (CellTiter-Glo); type: cell-based
SARS-CoV-2 = experiment: Anti-viral potency in VERO E6 cells (cytopathic viral activity, crystal violet); type: cell-based; conditions: Severe acute respiratory syndrome coronavirus 2, Vero C1008, 48 h, read-out: SARS-COV-2 EC50 (μM)
SARS-CoV-2 PLpro = biological target: T1, SARS-CoV-2 PLpro (Severe acute respiratory syndrome coronavirus 2, UniProt P0DTD1); experiment: biochemical
T1 construct: containing 60 nM papain-like protease

[2] = Hep G2 cells, 100 μM test article, 24-hour exposure
[3] = 60 nM papain-like protease, 50 μM Z-RLRGG-AMC, pH 7.5, 37° C., read-out: SARS-CoV-2 PLpro IC50

Row | Structure (SMILES) | % Cell Viability [1, 2] [%] | EC50 (SARS-CoV-2) [µM] | IC50 (SARS-CoV-2 PLpro; [3]) [µM] | % Cell Viability ([1]; human, 24 h, 100 μM) [%] | IC50 (SARS-CoV-2 PLpro) [µM]
1 | COc1cc(-c2cn(C)nc2C)cc([C@@H](C)NC(=O)c2cc(N3C[C@H]4C[C@@H]3CN4C)ccc2C)c1 [Example 230, N-[(1R)-1-[3-(1,3-Dimethylpyrazol-4-yl)-5-methoxy-phenyl]ethyl]-2-methyl-5-[(1R,4R)-5-methyl-2,5-diazabicyclo[2.2.1]heptan-2-yl]benzamide] | 38.3 | < 5 | < 2 |  | 
2 | COc1cc(-c2cn(C)nc2C)cc([C@@H](C)NC(=O)c2cc(N3CCN(C)CC3)ccc2C)c1 [Example 233, N-[(1R)-1-[3-(1,3-Dimethylpyrazol-4-yl)-5-methoxy-phenyl]ethyl]-2-methyl-5-(4-methylpiperazin-1-yl)benzamide] | 88.9 | < 5 | < 2 |  | 
3 | COc1cc(-c2cnn(C)c2)cc([C@@H](C)NC(=O)c2cc(N3CCNCC3)ccc2C)c1 [Example 235, N-[(1R)-1-[3-Methoxy-5-(1-methylpyrazol-4-yl)phenyl]ethyl]-2-methyl-5-piperazin-1-yl-benzamide] | 90.6 | < 5 | < 2 |  | 
4 | COc1ccc(-c2cnn(C)c2)cc1[C@@H](C)NC(=O)c1cc(N2CCN(C)CC2)ccc1C [Example 239, N-[(1R)-1-[2-Methoxy-5-(1-methylpyrazol-4-yl)phenyl]ethyl]-2-methyl-5-(4-methylpiperazin-1-yl)benzamide] | 101.6 | < 5 | < 2 |  | 
5 | COc1cc(-c2cnn(C)c2)cc([C@@H](C)NC(=O)c2cc(N3C[C@H]4C[C@@H]3CN4C)ccc2C)c1 [Example 244, N-[(1R)-1-[3-Methoxy-5-(1-methylpyrazol-4-yl)phenyl]ethyl]-2-methyl-5-[(1R,4R)-5-methyl-2,5-diazabicyclo[2.2.1]heptan-2-yl]benzamide] | 67.1 | < 5 | < 2 |  | 
6 | COc1cc(-c2cnn(C)c2)cc([C@@H](C)NC(=O)c2cc(N3CCN(CC4CC4)CC3)ccc2C)c1 [Example 245, 5-[4-(Cyclopropylmethyl)piperazin-1-yl]-N-[(1R)-1-[3-methoxy-5-(1-methylpyrazol-4-yl)phenyl]ethyl]-2-methyl-benzamide] | 58.4 | < 5 | < 2 |  | 
7 | COc1ccc([C@@H](C)NC(=O)c2cc(N3CCN(C)CC3)ccc2C)cc1-c1nccs1 [Example 251, N-[(1R)-1-(4-Methoxy-3-thiazol-2-yl-phenyl)ethyl]-2-methyl-5-(4-methylpiperazin-1-yl)benzamide] | 63.2 | < 5 | < 2 |  | 
8 | Cc1ccc(N2CCN(C)CC2)cc1C(=O)N[C@H](C)c1ccc(Cl)c(-c2cnn(C)c2)c1 [Example 252, N-[(1R)-1-[4-Chloro-3-(1-methylpyrazol-4-yl)phenyl]ethyl]-2-methyl-5-(4-methylpiperazin-1-yl)benzamide] | 49.4 | < 5 | < 2 |  | 
9 | COc1cc(-c2cnn(C)c2C)cc([C@@H](C)NC(=O)c2cc(N3CCN(C)CC3)ccc2C)c1 [Example 253, N-[(1R)-1-[3-(1,5-Dimethylpyrazol-4-yl)-5-methoxy-phenyl]ethyl]-2-methyl-5-(4-methylpiperazin-1-yl)benzamide hydrochloride salt] | 89.3 | < 5 | < 2 |  | 
10 | COc1ccc([C@@H](C)NC(=O)c2cc(N3CCNCC3)ccc2C)cc1-c1cnn(C)c1 [Example 260, N-[(1R)-1-[4-Methoxy-3-(1-methylpyrazol-4-yl)phenyl]ethyl]-2-methyl-5-piperazin-1-yl-benzamide] | 91.1 | < 15 | < 2 |  | 
11 | COc1ccc([C@@H](C)NC(=O)c2cc(N3CC4CNCC4C3)ccc2C)cc1-c1cnn(C)c1 (stereo partly drawn) [Example 261, 5-(2,3,3a,4,6,6a-Hexahydro-1H-pyrrolo[3,4-c]pyrrol-5-yl)-N-[(1R)-1-[4-methoxy-3-(1-methylpyrazol-4-yl)phenyl]ethyl]-2-methyl-benzamide] | 49.2 | < 15 | < 2 |  | 
12 | COc1ccc([C@@H](C)NC(=O)c2cc(N3C[C@H]4CC[C@@H](C3)N4)ccc2C)cc1-c1cnn(C)c1 [Example 266, 5-[(1S,5R)-3,8-Diazabicyclo[3.2.1]octan-3-yl]-N-[(1R)-1-[4-methoxy-3-(1-methylpyrazol-4-yl)phenyl]ethyl]-2-methyl-benzamide hydrochloride salt] |  | < 5 |  | 61.1 | < 2
13 | COc1cc(-c2cnn(C)c2)cc([C@@H](C)NC(=O)c2cc(N3C[C@H]4CC[C@@H](C3)N4)ccc2C)c1 [Example 272, 5-[(1R,5S)-3,8-diazabicyclo[3.2.1]octan-3-yl]-N-[(1R)-1-[3-methoxy-5-(1-methyl-1H-pyrazol-4-yl)phenyl]ethyl]-2-methylbenzamide] |  | < 5 |  | 74.3 | < 2
14 | COCCOc1ccc([C@@H](C)NC(=O)c2cc(N3CCN(C)CC3)ccc2C)cc1-c1cnn(C)c1 [Example 280, N-[(1R)-1-[4-(2-Methoxyethoxy)-3-(1-methylpyrazol-4-yl)phenyl]ethyl]-2-methyl-5-(4-methylpiperazin-1-yl)benzamide] | 76.7 | < 5 | < 2 |  | 
15 | COc1cc(-c2cc(C(=O)N(C)C)n(C)c2)cc([C@@H](C)NC(=O)c2cc(N3CCN(C)CC3)ccc2C)c1 [Example 289, 4-[3-Methoxy-5-[(1R)-1-[[2-methyl-5-(4-methylpiperazin-1-yl)benzoyl]amino]ethyl]phenyl]-N,N,1-trimethyl-pyrrole-2-carboxamide] | 59.5 | < 5 | < 2 |  | 
16 | COc1cc([C@@H](C)NC(=O)c2cc(N3CCN(C)CC3)ccc2C)ccc1OCCN1CCOCC1 [Example 293, N-[(1R)-1-[3-Methoxy-4-(2-morpholinoethoxy)phenyl]ethyl]-2-methyl-5-(4-methylpiperazin-1-yl)benzamide] | 102.3 | < 5 | < 2 |  | 
17 | COc1ccc([C@@H](C)NC(=O)c2cc(N3CCN(C)CC3)ccc2C)cc1OCC1CC1 [Example 296, N-[(1R)-1-[3-(Cyclopropylmethoxy)-4-methoxy-phenyl]ethyl]-2-methyl-5-(4-methylpiperazin-1-yl)benzamide] | 76.1 | < 15 | < 2 |  | 
18 | COc1ccc([C@@H](C)NC(=O)c2cc(C3CCN(C)CC3)ccc2C)cc1-c1cnn(C)c1 [Example 300, N-[(1R)-1-[4-Methoxy-3-(1-methylpyrazol-4-yl)phenyl]ethyl]-2-methyl-5-(1-methyl-4-piperidyl)benzamide] | 74.7 | < 5 | < 2 |  | 
19 | COc1cc([C@@H](C)NC(=O)c2cc(N3CCN(C)CC3)ccc2C)ccc1-c1cnn(C)c1 [Example 306, N-[(1R)-1-[3-Methoxy-4-(1-methylpyrazol-4-yl)phenyl]ethyl]-2-methyl-5-(4-methylpiperazin-1-yl)benzamide] | 88.4 | < 5 | < 2 |  | 
